{"source": "paper PMC5218480", "about": "(PLoS ONE, 2017)", "system": "MV-4-11 cells", "experiment": "Gene expression microarray analysis (Affymetrix PrimeView) and GSEA", "type": "cell-based, human", "design": "RFU PODN (11730768_x_at) / Fold change /veh PODN (11730768_x_at) / RFU LINC00158 (11744669_a_at) / Fold change /veh LINC00158 (11744669_a_at) / RFU DUSP10 (11751237_a_at) / Fold change /veh DUSP10 (11751237_a_at) / RFU ID3 (11757404_x_at) / Fold change /veh ID3 (11757404_x_at) / RFU PLEKHG5 (11737974_s_at) / Fold change /veh PLEKHG5 (11737974_s_at) / RFU LRRC4B (11730491_at) / Fold change /veh LRRC4B (11730491_at) / RFU GIMAP4 (11747438_a_at) / Fold change /veh GIMAP4 (11747438_a_at) / RFU KRT8 (11758183_x_at) / Fold change /veh KRT8 (11758183_x_at) / RFU CNN1 (11734310_a_at) / Fold change /veh CNN1 (11734310_a_at) / RFU VPS37D (11726825_at) / Fold change /veh VPS37D (11726825_at) / RFU C10orf10 (11716522_x_at) / Fold change /veh C10orf10 (11716522_x_at) / RFU KIR2DL2 /// KIR2DL4 /// KIR2DL5A /// KIR2DL5B /// KIR2DS1 /// KIR2DS2 /// KIR2DS3 /// KIR2DS4 /// KIR3DL3 /// KIR3DL3 /// KIR3DS1 (11738374_at) / Fold change /veh KIR2DL2 /// KIR2DL4 /// KIR2DL5A /// KIR2DL5B /// KIR2DS1 /// KIR2DS2 /// KIR2DS3 /// KIR2DS4 /// KIR3DL3 /// KIR3DL3 /// KIR3DS1 (11738374_at) / RFU C1QL1 (11718748_at) / Fold change /veh C1QL1 (11718748_at) / RFU TMPRSS4 (11747572_a_at) / Fold change /veh TMPRSS4 (11747572_a_at) / RFU HAMP (11756126_x_at) / Fold change /veh HAMP (11756126_x_at) / RFU RNFT2 (11725882_a_at) / Fold change /veh RNFT2 (11725882_a_at) / RFU NR4A2 (11747474_a_at) / Fold change /veh NR4A2 (11747474_a_at) / RFU ABCC12 (11746883_a_at) / Fold change /veh ABCC12 (11746883_a_at) / RFU TMEM136 (11760407_x_at) / Fold change /veh TMEM136 (11760407_x_at) / RFU CLDN22 /// WWC2 (11732394_at) / Fold change /veh CLDN22 /// WWC2 (11732394_at) / RFU HLA-DPB1 (11760878_x_at) / Fold change /veh HLA-DPB1 (11760878_x_at) / RFU SPINT1 (11716480_a_at) / Fold change /veh SPINT1 (11716480_a_at) / RFU GAP43 (11754022_s_at) / Fold change /veh GAP43 (11754022_s_at) / RFU A4GNT (11735810_at) / Fold change /veh A4GNT (11735810_at) / RFU PRB3 (11715151_x_at) / Fold change /veh PRB3 (11715151_x_at) / RFU TUBB4B (11761932_at) / Fold change /veh TUBB4B (11761932_at) / RFU CAPN14 (11732068_a_at) / Fold change /veh CAPN14 (11732068_a_at) / RFU TMCC2 (11721928_a_at) / Fold change /veh TMCC2 (11721928_a_at) / RFU IRGQ (11745062_a_at) / Fold change /veh IRGQ (11745062_a_at) / RFU FAM174B (11720279_a_at) / Fold change /veh FAM174B (11720279_a_at) / RFU TMPRSS4 (11748680_a_at) / Fold change /veh TMPRSS4 (11748680_a_at) / RFU FAM212B (11763350_a_at) / Fold change /veh FAM212B (11763350_a_at) / RFU PLEKHG5 (11743358_a_at) / Fold change /veh PLEKHG5 (11743358_a_at) / RFU ZSCAN30 (11745921_a_at) / Fold change /veh ZSCAN30 (11745921_a_at) / RFU CMKLR1 (11741424_a_at) / Fold change /veh CMKLR1 (11741424_a_at) / RFU LOC101060620 /// MAPK8IP1 (11723275_at) / Fold change /veh LOC101060620 /// MAPK8IP1 (11723275_at) / RFU SPTSSB (11747773_x_at) / Fold change /veh SPTSSB (11747773_x_at) / RFU PRSS12 (11739890_at) / Fold change /veh PRSS12 (11739890_at) / RFU BIN1 (11741810_x_at) / Fold change /veh BIN1 (11741810_x_at) / RFU WNT11 (11732464_a_at) / Fold change /veh WNT11 (11732464_a_at) / RFU C10orf10 (11716521_a_at) / Fold change /veh C10orf10 (11716521_a_at) / RFU C5orf56 (11738089_at) / Fold change /veh C5orf56 (11738089_at) / RFU CYB561 (11721691_x_at) / Fold change /veh CYB561 (11721691_x_at) / RFU ANKRD19P (11752326_a_at) / Fold change /veh ANKRD19P (11752326_a_at) / RFU OR2T12 /// OR2T33 /// OR2T8 (11738714_s_at) / Fold change /veh OR2T12 /// OR2T33 /// OR2T8 (11738714_s_at) / RFU VCAN (11748164_a_at) / Fold change /veh VCAN (11748164_a_at) / RFU JSRP1 (11732532_at) / Fold change /veh JSRP1 (11732532_at) / RFU KRTAP10-11 (11738290_x_at) / Fold change /veh KRTAP10-11 (11738290_x_at) / RFU MYO3A (11730013_a_at) / Fold change /veh MYO3A (11730013_a_at) / RFU EBF3 (11725865_a_at) / Fold change /veh EBF3 (11725865_a_at) / RFU CAMK2N1 (11719241_x_at) / Fold change /veh CAMK2N1 (11719241_x_at) / RFU C5orf56 (11738088_a_at) / Fold change /veh C5orf56 (11738088_a_at) / RFU OLFML3 (11715873_a_at) / Fold change /veh OLFML3 (11715873_a_at) / RFU LOC100653217 /// NTM (11731650_a_at) / Fold change /veh LOC100653217 /// NTM (11731650_a_at) / RFU MAPK11 (11762145_a_at) / Fold change /veh MAPK11 (11762145_a_at) / RFU FIZ1 (11724087_x_at) / Fold change /veh FIZ1 (11724087_x_at) / RFU OASL (11726364_x_at) / Fold change /veh OASL (11726364_x_at) / RFU SOX15 (11748057_x_at) / Fold change /veh SOX15 (11748057_x_at) / RFU CD79A (11719716_a_at) / Fold change /veh CD79A (11719716_a_at) / RFU HIST1H1D (11736915_at) / Fold change /veh HIST1H1D (11736915_at) / RFU CASKIN2 (11723855_a_at) / Fold change /veh CASKIN2 (11723855_a_at) / RFU LOC730098 (11760151_x_at) / Fold change /veh LOC730098 (11760151_x_at) / RFU OR4N2 (11742367_at) / Fold change /veh OR4N2 (11742367_at) / RFU PRRT2 (11749266_a_at) / Fold change /veh PRRT2 (11749266_a_at) / RFU SNX32 (11753110_a_at) / Fold change /veh SNX32 (11753110_a_at) / RFU CDHR5 (11726645_a_at) / Fold change /veh CDHR5 (11726645_a_at) / RFU RCAN1 (11760418_a_at) / Fold change /veh RCAN1 (11760418_a_at) / RFU FAM167A (11723789_a_at) / Fold change /veh FAM167A (11723789_a_at) / RFU FAM26E (11764081_at) / Fold change /veh FAM26E (11764081_at) / RFU ISYNA1 (11749810_s_at) / Fold change /veh ISYNA1 (11749810_s_at) / RFU ACY1 (11761880_at) / Fold change /veh ACY1 (11761880_at) / RFU 11764098_at / Fold change /veh 11764098_at / RFU SAMD14 (11745864_x_at) / Fold change /veh SAMD14 (11745864_x_at) / RFU NPB (11741838_a_at) / Fold change /veh NPB (11741838_a_at) / RFU TMPRSS6 (11731388_a_at) / Fold change /veh TMPRSS6 (11731388_a_at) / RFU KRTAP10-2 (11738614_at) / Fold change /veh KRTAP10-2 (11738614_at) / RFU ARHGAP8 /// PRR5-ARHGAP8 (11727945_x_at) / Fold change /veh ARHGAP8 /// PRR5-ARHGAP8 (11727945_x_at) / RFU KRTAP5-7 /// NADSYN1 (11734609_at) / Fold change /veh KRTAP5-7 /// NADSYN1 (11734609_at) / RFU RASL12 (11751679_a_at) / Fold change /veh RASL12 (11751679_a_at) / RFU CDKN2B (11736163_a_at) / Fold change /veh CDKN2B (11736163_a_at) / RFU PRF1 (11729649_at) / Fold change /veh PRF1 (11729649_at) / RFU, ZNF638 /// ZNF638-IT1 / Fold change vs veh, ZNF638 /// ZNF638-IT1 / RFU, PANK3 / Fold change vs veh, PANK3 / RFU, SH3YL1 / Fold change vs veh, SH3YL1 / RFU, ZEB2 / Fold change vs veh, ZEB2 / RFU, NRIP1 / Fold change vs veh, NRIP1 / RFU, PTTG1IP / Fold change vs veh, PTTG1IP / RFU, CAPN2 / Fold change vs veh, CAPN2 / RFU, MED14 / Fold change vs veh, MED14 / RFU, SNORA58 / Fold change vs veh, SNORA58 / RFU, C1orf63 / Fold change vs veh, C1orf63 / RFU, LRRFIP1 / Fold change vs veh, LRRFIP1 / RFU, NDUFAF7 / Fold change vs veh, NDUFAF7 / RFU, SLC12A2 / Fold change vs veh, SLC12A2 / RFU, IBTK / Fold change vs veh, IBTK / RFU, ESF1 / Fold change vs veh, ESF1 / Fold change vs veh, TMEM50B / RFU, TAOK1 / Fold change vs veh, TAOK1 / RFU, ACBD3 / Fold change vs veh, ACBD3 / RFU, TMA16 / Fold change vs veh, TMA16 / RFU, RWDD3 / Fold change vs veh, RWDD3 / RFU, BCAT1 / Fold change vs veh, BCAT1 / RFU, EDEM3 / Fold change vs veh, EDEM3 / RFU, TMEM33 / Fold change vs veh, TMEM33 / RFU, WDR75 / Fold change vs veh, WDR75 / RFU, AHCTF1 / Fold change vs veh, AHCTF1 / RFU, TFRC / Fold change vs veh, TFRC / RFU, ZDHHC17 / Fold change vs veh, ZDHHC17 / RFU, NOM1 / Fold change vs veh, NOM1 / RFU, ARL8B / Fold change vs veh, ARL8B / RFU, ZBTB11 / Fold change vs veh, ZBTB11 / RFU, TAMM41 / Fold change vs veh, TAMM41 / RFU, KIAA1704 /// LOC100996395 / Fold change vs veh, KIAA1704 /// LOC100996395 / RFU, ING1 / Fold change vs veh, ING1 / RFU, TRMT61B / Fold change vs veh, TRMT61B / RFU, FUBP3 / Fold change vs veh, FUBP3 / RFU, TP53 / Fold change vs veh, TP53 / RFU, TNKS2 / Fold change vs veh, TNKS2 / RFU, ZFP14 / Fold change vs veh, ZFP14 / RFU, ACTR2 / Fold change vs veh, ACTR2 / RFU, PPP3R1 / Fold change vs veh, PPP3R1 / RFU, PIK3R1 / Fold change vs veh, PIK3R1 / RFU, HNRNPA1 / Fold change vs veh, HNRNPA1 / RFU, RNF170 / Fold change vs veh, RNF170 / RFU, ZNF28 / Fold change vs veh, ZNF28 / RFU, RNGTT / Fold change vs veh, RNGTT / RFU, OGT / Fold change vs veh, OGT / RFU, BRD1 / Fold change vs veh, BRD1 / RFU, MARS / Fold change vs veh, MARS / RFU, ZNF655 / Fold change vs veh, ZNF655 / RFU, FAHD1 / Fold change vs veh, FAHD1 / RFU, BDP1 / Fold change vs veh, BDP1 / RFU, LRRCC1 / Fold change vs veh, LRRCC1 / RFU, ARID1A / Fold change vs veh, ARID1A / RFU, ZNF146 / Fold change vs veh, ZNF146 / RFU, ZNF330 / Fold change vs veh, ZNF330 / RFU, GPN3 / Fold change vs veh, GPN3 / RFU, C9orf123 / Fold change vs veh, C9orf123 / RFU, N4BP2L2 / Fold change vs veh, N4BP2L2 / RFU, ARFIP1 / Fold change vs veh, ARFIP1 / RFU, FAM179B / Fold change vs veh, FAM179B / RFU, BCL10 / Fold change vs veh, BCL10 / RFU, UHRF1BP1L / Fold change vs veh, UHRF1BP1L / RFU, BET1 / Fold change vs veh, BET1 / RFU, CNOT2 / Fold change vs veh, CNOT2 / RFU, ZNF268 / Fold change vs veh, ZNF268 / Fold change vs veh, ZNF507 / RFU, DGCR2 / Fold change vs veh, DGCR2 / RFU, WDSUB1 / Fold change vs veh, WDSUB1 / Fold change vs veh, HSP90B1 /// MIR3652 / RFU, ADSS / Fold change vs veh, ADSS / RFU, GK / Fold change vs veh, GK / RFU, ZNF148 / Fold change vs veh, ZNF148 / RFU, TAF9 / Fold change vs veh, TAF9 / RFU, SLC1A5 / Fold change vs veh, SLC1A5 / RFU, SLMO2 / Fold change vs veh, SLMO2 / RFU, ABCC4 / Fold change vs veh, ABCC4 / RFU, LOC101060439 /// RAP1B / Fold change vs veh, LOC101060439 /// RAP1B / RFU, RFX7 / Fold change vs veh, RFX7 / RFU, GTPBP10 / Fold change vs veh, GTPBP10 / RFU, CNEP1R1 / Fold change vs veh, CNEP1R1 / RFU, BIVM-ERCC5 /// ERCC5 / Fold change vs veh, BIVM-ERCC5 /// ERCC5 / RFU, ILF3 / Fold change vs veh, ILF3 / RFU 11762660_at / Fold change /veh 11762660_at / RFU VCAN (11757783_s_at) / Fold change /veh VCAN (11757783_s_at) / RFU DDX43 (11728927_at) / Fold change /veh DDX43 (11728927_at) / RFU KRT8 (11758188_x_at) / Fold change /veh KRT8 (11758188_x_at) / RFU NKD1 (11759106_at) / Fold change /veh NKD1 (11759106_at) / RFU SRD5A1 (11742802_a_at) / Fold change /veh SRD5A1 (11742802_a_at) / RFU TPSAB1 /// TPSB2 (11721975_s_at) / Fold change /veh TPSAB1 /// TPSB2 (11721975_s_at) / RFU GSTM3 (11746129_a_at) / Fold change /veh GSTM3 (11746129_a_at) / RFU IL23R (11737362_x_at) / Fold change /veh IL23R (11737362_x_at) / RFU TMEM51 (11727254_a_at) / Fold change /veh TMEM51 (11727254_a_at) / RFU PIWIL2 (11732686_x_at) / Fold change /veh PIWIL2 (11732686_x_at) / RFU ORM1 (11744905_x_at) / Fold change /veh ORM1 (11744905_x_at) / RFU CCDC152 (11743942_at) / Fold change /veh CCDC152 (11743942_at) / RFU ECM1 (11717891_a_at) / Fold change /veh ECM1 (11717891_a_at) / RFU IL23R (11748794_a_at) / Fold change /veh IL23R (11748794_a_at) / RFU TNFAIP8L3 (11732012_x_at) / Fold change /veh TNFAIP8L3 (11732012_x_at) / RFU MBOAT4 (11741988_at) / Fold change /veh MBOAT4 (11741988_at) / RFU 11764193_at / Fold change /veh 11764193_at / RFU TMEM53 (11763286_at) / Fold change /veh TMEM53 (11763286_at) / RFU MAGEB2 (11727129_at) / Fold change /veh MAGEB2 (11727129_at) / RFU TMEM200A (11744735_a_at) / Fold change /veh TMEM200A (11744735_a_at) / RFU CCDC152 (11751479_a_at) / Fold change /veh CCDC152 (11751479_a_at) / RFU FAM211A (11726209_a_at) / Fold change /veh FAM211A (11726209_a_at) / RFU RGS16 (11746705_a_at) / Fold change /veh RGS16 (11746705_a_at) / RFU VCAN (11755009_s_at) / Fold change /veh VCAN (11755009_s_at) / RFU RHOB (11743442_s_at) / Fold change /veh RHOB (11743442_s_at) / RFU RGS16 (11720943_a_at) / Fold change /veh RGS16 (11720943_a_at) / RFU RGS16 (11720944_at) / Fold change /veh RGS16 (11720944_at) / RFU, VPS4B / Fold change vs veh, VPS4B / RFU, CREB1 / Fold change vs veh, CREB1 / RFU, DNAJC13 / Fold change vs veh, DNAJC13 / RFU, GNAQ / Fold change vs veh, GNAQ / RFU, CDK5R1 / Fold change vs veh, CDK5R1 / RFU, ZRANB3 / Fold change vs veh, ZRANB3 / RFU, CUL4A / Fold change vs veh, CUL4A / RFU, CCNY / Fold change vs veh, CCNY / RFU, UFL1 / Fold change vs veh, UFL1 / RFU, COG3 / Fold change vs veh, COG3 / RFU, DIAPH2 / Fold change vs veh, DIAPH2 / RFU, SKA2 / Fold change vs veh, SKA2 / RFU, AFF3 / Fold change vs veh, AFF3 / RFU, LMF1 / Fold change vs veh, LMF1 / RFU, IPO11 / Fold change vs veh, IPO11 / RFU, DFFB / Fold change vs veh, DFFB / RFU, FOXP1 / Fold change vs veh, FOXP1 / RFU, CARD8 / Fold change vs veh, CARD8 / RFU, STRN3 / Fold change vs veh, STRN3 / RFU, ADK / Fold change vs veh, ADK / RFU, RASSF2 / Fold change vs veh, RASSF2 / RFU, WIPF1 / Fold change vs veh, WIPF1 / RFU, LARP1B / Fold change vs veh, LARP1B / RFU, RASA1 / Fold change vs veh, RASA1 / RFU, RB1 / Fold change vs veh, RB1 / RFU, PPFIA1 / Fold change vs veh, PPFIA1 / RFU, MAT2A / Fold change vs veh, MAT2A / RFU, CCT5 / Fold change vs veh, CCT5 / RFU, WDR92 / Fold change vs veh, WDR92 / RFU, CUX1 / Fold change vs veh, CUX1 / RFU, TTC7A / Fold change vs veh, TTC7A / RFU, TMEM135 / Fold change vs veh, TMEM135 / RFU, DEPTOR / Fold change vs veh, DEPTOR / RFU, CPM / Fold change vs veh, CPM / RFU, DNAJB6 / Fold change vs veh, DNAJB6 / RFU, CACNA2D3 / Fold change vs veh, CACNA2D3 / RFU, DTX4 / Fold change vs veh, DTX4 / RFU, TFCP2 / Fold change vs veh, TFCP2 / RFU, GMCL1 /// GMCL1P1 / Fold change vs veh, GMCL1 /// GMCL1P1 / RFU, AEBP2 / Fold change vs veh, AEBP2 / RFU, SNHG1 /// SNORD22 /// SNORD25 /// SNORD26 /// SNORD27 /// SNORD28 /// SNORD29 /// SNORD31 / Fold change vs veh, SNHG1 /// SNORD22 /// SNORD25 /// SNORD26 /// SNORD27 /// SNORD28 /// SNORD29 /// SNORD31 / Fold change (Aza/veh), C12orf56 (ProbeSet 11735607_a_at) / Fold change (ACY-1035/veh), C12orf56 (ProbeSet 11735607_a_at) / Fold change (Aza/veh), FGFR1OP (ProbeSet 11751329_s_at) / Fold change (ACY-1035/veh), FGFR1OP (ProbeSet 11751329_s_at) / Fold change (Aza/veh), VPS36 (ProbeSet 11739960_a_at) / Fold change (ACY-1035/veh), VPS36 (ProbeSet 11739960_a_at) / RFU SYPL1 (11715823_x_at) / Fold change /veh SYPL1 (11715823_x_at) / RFU IGFBP7 (11715501_s_at) / Fold change /veh IGFBP7 (11715501_s_at) / RFU REEP3 (11722064_at) / Fold change /veh REEP3 (11722064_at) / RFU IGLL1 (11728026_x_at) / Fold change /veh IGLL1 (11728026_x_at): dose or concentration left out as unconfirmed", "details": "MV-4-11 cells, 48 hours", "data": [{"smiles": "Nc1ccc(-c2cccs2)cc1NC(=O)c1ccc2c(c1)cc(C1CC1)n2CCN1CCOCC1", "note": "[ACY-1035]", "values": [{"measurement": "Fold change /veh C5orf56 (11738089_at)", "value": 1.04}]}]}
